ChEMBL document CHEMBL1201862, “PubChem BioAssay data set” (2004)
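How tested: cells in 96-well plates exposed to compound for 48 hours at five concentrations. GI50: concentration for 50% inhibition of growth.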 Activity calls are given as the source filed them. Cut-off read from the data, not from the text of the source: active = GI50 up to about 1.1 µM and inactive = higher.

Legend:
Experiment in all cases: growth of human tumour cells (NCI), 48 h
OVCAR-5 = system: OVCAR-5
RXF 631 = system: RXF 631
NCI-H460 = system: NCI-H460
OVCAR-8 = system: OVCAR-8
RPMI-8226 = system: RPMI-8226
SF-539 = system: SF-539
HCT-116 = system: HCT-116
HT-29 = system: HT-29
LOX IMVI = system: LOX IMVI
SNB-19 = system: SNB-19
XF498 = system: XF498
DLD-1 = system: DLD-1
786-0 = system: 786-0
SW-620 = system: SW-620
M19-MEL = system: M19-MEL
HOP-62 = system: HOP-62
CAKI-1 = system: CAKI-1
UACC-257 = system: UACC-257
TK-10 = system: TK-10
A549 = system: A549
SK-MEL-2 = system: SK-MEL-2
RXF 393 = system: RXF 393
KM12 = system: KM12
EKVX = system: EKVX
SF-268 = system: SF-268
LXFL 529 = system: LXFL 529
M14 = system: M14
NCI-H226 = system: NCI-H226
HOP-92 = system: HOP-92
SK-MEL-5 = system: SK-MEL-5
SF-295 = system: SF-295
COLO 205 = system: COLO 205
Malme-3M = system: Malme-3M
DMS-273 = system: DMS-273
SNB-75 = system: SNB-75
K562 = system: K562
HOP-18 = system: HOP-18
HL-60 = system: HL-60
UACC-62 = system: UACC-62
IGROV-1 = system: IGROV-1
OVCAR-3 = system: OVCAR-3
ACHN = system: ACHN
NCI-H23 = system: NCI-H23
UO-31 = system: UO-31
U-251 = system: U-251
MOLT-4 = system: MOLT-4
SK-OV-3 = system: SK-OV-3
OVCAR-4 = system: OVCAR-4
CCRF-CEM = system: CCRF-CEM
NCI-H522 = system: NCI-H522
SR = system: SR
HCT-15 = system: HCT-15
DMS-114 = system: DMS-114
SK-MEL-28 = system: SK-MEL-28
HCC 2998 = system: HCC 2998
SN12C = system: SN12C
SNB-78 = system: SNB-78
A498 = system: A498

CCCCCCCCCCCc1cc(=O)c2c(O)cccc2o1
GI50 (OVCAR-5): 88.7 µM (inactive)
GI50 (RXF 631): > 100 µM (inactive)
GI50 (NCI-H460): 79.1 µM (inactive)
GI50 (OVCAR-8): > 100 µM (inactive)
GI50 (RPMI-8226): 30.6 µM (inactive)
GI50 (SF-539): > 100 µM (inactive)
GI50 (HCT-116): 41.9 µM (inactive)
GI50 (HT-29): 53.7 µM (inactive)
GI50 (LOX IMVI): 37.5 µM (inactive)
GI50 (SNB-19): > 100 µM (inactive)
GI50 (XF498): 42.8 µM (inactive)
GI50 (DLD-1): > 100 µM (inactive)
GI50 (786-0): > 100 µM (inactive)
GI50 (SW-620): > 100 µM (inactive)
GI50 (M19-MEL): 43.8 µM (inactive)
GI50 (HOP-62): > 100 µM (inactive)
GI50 (CAKI-1): > 100 µM (inactive)
GI50 (UACC-257): 36 µM (inactive)
GI50 (TK-10): > 100 µM (inactive)
GI50 (A549): 61.8 µM (inactive)
GI50 (SK-MEL-2): 24.1 µM (inactive)
GI50 (RXF 393): 70.6 µM (inactive)
GI50 (KM12): 54.2 µM (inactive)
GI50 (EKVX): 56.1 µM (inactive)
GI50 (SF-268): > 100 µM (inactive)
GI50 (LXFL 529): 55.1 µM (inactive)
GI50 (M14): 64 µM (inactive)
GI50 (NCI-H226): 37.8 µM (inactive)
GI50 (HOP-92): > 100 µM (inactive)
GI50 (SK-MEL-5): 44.8 µM (inactive)
GI50 (SF-295): 87.5 µM (inactive)
GI50 (COLO 205): > 100 µM (inactive)
GI50 (Malme-3M): > 100 µM (inactive)
GI50 (DMS-273): 56.6 µM (inactive)
GI50 (SNB-75): > 100 µM (inactive)
GI50 (K562): 43.7 µM (inactive)
GI50 (HOP-18): > 100 µM (inactive)
GI50 (HL-60): 30.5 µM (inactive)
GI50 (UACC-62): > 100 µM (inactive)
GI50 (IGROV-1): > 100 µM (inactive)
GI50 (OVCAR-3): > 100 µM (inactive)
GI50 (ACHN): > 100 µM (inactive)
GI50 (NCI-H23): > 100 µM (inactive)
GI50 (UO-31): > 100 µM (inactive)
GI50 (U-251): 95.7 µM (inactive)
GI50 (MOLT-4): 30.3 µM (inactive)
GI50 (SK-OV-3): > 100 µM (inactive)
GI50 (OVCAR-4): > 100 µM (inactive)
GI50 (CCRF-CEM): 20.3 µM (inactive)
GI50 (NCI-H522): 71.1 µM (inactive)
GI50 (SR): 26.1 µM (inactive)
GI50 (HCT-15): 54.8 µM
GI50 (DMS-114): 38.7 µM (inactive)
GI50 (SK-MEL-28): 94.6 µM (inactive)
GI50 (HCC 2998): 66.2 µM (inactive)
GI50 (SN12C): > 100 µM (inactive)
GI50 (SNB-78): > 100 µM (inactive)

Cc1c(C(=O)C/C(=N/NC(=O)c2ccccc2)C(=O)Nc2ccc(Cl)cc2)[n+]([O-])c2ccccc2[n+]1[O-]
GI50 (OVCAR-5): 79.3 µM (inactive)
GI50 (RXF 631): > 100 µM (inactive)
GI50 (NCI-H460): 49.1 µM (inactive)
GI50 (OVCAR-8): > 100 µM (inactive)
GI50 (RPMI-8226): 80.4 µM (inactive)
GI50 (SF-539): > 100 µM (inactive)
GI50 (HCT-116): > 100 µM (inactive)
GI50 (HT-29): > 100 µM (inactive)
GI50 (LOX IMVI): 89.1 µM (inactive)
GI50 (SNB-19): 88.3 µM (inactive)
GI50 (XF498): > 100 µM (inactive)
GI50 (DLD-1): 75.7 µM (inactive)
GI50 (786-0): > 100 µM (inactive)
GI50 (SW-620): 46.2 µM (inactive)
GI50 (HOP-62): 90.8 µM (inactive)
GI50 (CAKI-1): 82.4 µM (inactive)
GI50 (UACC-257): 69.8 µM (inactive)
GI50 (TK-10): > 100 µM (inactive)
GI50 (A498): > 100 µM (inactive)
GI50 (A549): > 100 µM (inactive)
GI50 (SK-MEL-2): > 100 µM (inactive)
GI50 (RXF 393): 85.1 µM (inactive)
GI50 (KM12): > 100 µM (inactive)
GI50 (SF-268): > 100 µM (inactive)
GI50 (LXFL 529): 84.3 µM (inactive)
GI50 (M14): > 100 µM (inactive)
GI50 (NCI-H226): > 100 µM (inactive)
GI50 (SK-MEL-5): > 100 µM (inactive)
GI50 (SF-295): 63.8 µM (inactive)
GI50 (COLO 205): > 100 µM (inactive)
GI50 (Malme-3M): > 100 µM (inactive)
GI50 (DMS-273): 75.2 µM (inactive)
GI50 (SNB-75): > 100 µM (inactive)
GI50 (K562): 69 µM (inactive)
GI50 (HOP-18): > 100 µM (inactive)
GI50 (HL-60): 29 µM (inactive)
GI50 (IGROV-1): 99.5 µM (inactive)
GI50 (OVCAR-3): 41.6 µM (inactive)
GI50 (ACHN): > 100 µM (inactive)
GI50 (NCI-H23): 38.7 µM (inactive)
GI50 (U-251): > 100 µM (inactive)
GI50 (MOLT-4): 47 µM (inactive)
GI50 (SK-OV-3): > 100 µM (inactive)
GI50 (OVCAR-4): > 100 µM (inactive)
GI50 (CCRF-CEM): 32.4 µM (inactive)
GI50 (NCI-H522): 38.4 µM (inactive)
GI50 (SR): 63.8 µM (inactive)
GI50 (HCT-15): 68.5 µM
GI50 (DMS-114): 32.6 µM (inactive)
GI50 (SK-MEL-28): > 100 µM (inactive)
GI50 (SN12C): > 100 µM (inactive)
GI50 (SNB-78): > 100 µM (inactive)
